Source: patent US20040082585A1, “Prodrugs of substituted polycyclic compounds useful for selective inhibition of the coagulation cascade” (Pharmacia Corporation, priority 2001, published 2004)

How the values were obtained:
[1] = Metabolic stability assay, hepatic S9 fraction incubation (human); format: in vitro ADME; conditions: human liver S9 fraction 2.0 mg/mL protein, 1.0 μM substrate, 1.0 mM NADPH, 37° C., 30 minutes
Method: (§1) In order to determine the metabolic stability of each of the tested compounds, the following assay conditions were used: 100 mM-phosphate buffer, 1.0 mM NADPH, 3.3 mM magnesium chloride, 2.0 mg/mL protein from Hepatic S9 Fraction and 1.0 μM of substrate.
(§2) The assay was performed on a 96-well conical shaped plate with a volume of 200 μL, after addition of methanol. For each species, a set of samples was prepared as shown below (volumes are in μL).
(§3) The plate was sealed and incubated in a Thermal Mixer at 37° C. for 30 minutes at 400 rpm. 100 μL of methanol was added to each well and the plate was mixed for several minutes and then covered with an aluminum seal. Finally, the plate was centrifuged at 1000 rpm for 10 minutes.
(§4) The assay was analyzed using liquid chromatography and positive ion electrospray mass spectrometry. The chromatography column used was Agilent Zorbax SB-C18 (3.0×150 mm, 5 μm) with a flow rate of 0.5 mL/min.
(§5) Calculations were performed to determine the percent remaining, which is calculated by dividing the Peak Area Ratio of the analyte measured in the active protein versus the Peak Area Ratio of the analyte measured in the inactivated protein sample. The Peak Area Ratio is defined as the peak area of the analyte divided by the peak area of the internal standard. Analyte is defined as the substrate of a specific measurable metabolite.

[2] = Metabolic stability assay, hepatic S9 fraction incubation (rat); format: in vitro ADME; conditions: rat liver S9 fraction 2.0 mg/mL protein, 1.0 μM substrate, 1.0 mM NADPH, 37° C., 30 minutes
Method: as §1, §2, §3, §4, §5

[3] = Bioavailability and prodrug conversion in male rats; format: in vivo; conditions: Crl:CD(SD)BR, rat, blood, fasted, oral 10 mg free base of active moiety per kg, IV 1 mg free base/kg, LC-MS/MS, read-out: BA (bioavailability of prodrug after oral adminstration)
Method: Healthy male rats [Crl:CD(SD)BR] were obtained from Charles River Breeding Laboratory (Canada). […] The animals weighed 250 to 320 g and were individually identified by labeling on each metabolism cage. The rats were housed in individual metabolism cages during dosing and sample collections. The animals were acclimated to a diet of Purina Rodent Chow #5002 (Ralston Purina, St. Louis, Mo.) for at least 5 days and were fasted for 15-20 hours prior to the administration of the compound. Food was available from 4 hours after dose administration and ad libitum throughout the remainder of the study.
Each animal received the prodrug orally at an equivalent dose of 10 mg of free base of active moiety per kg of body weight or active moiety orally at an equivalent dose of 10 mg equivalent free base per kg body weight. For intravenous (IV) study, the animals received 1 mg free base/kg body weight. Sufficient amount of the test article was dissolved in appropriate vehicle (See table below) such that the final concentration of dose solution was 2.0 mg free base/mL and 0.5 mg free base/mL for oral and IV doses, respectively. The dose volume was 5 mL/kg and 2 mL/kg for oral and IV doses, respectively
Blood samples were collected from the jugular vein at specified time intervals. Concentrations of test article and/or prodrug were analyzed using a LC-MS/MS procedure.
Model independent pharmacokinetic parameters (Cmax, Tmax, AUC, T1/2, CL, Vss) were obtained using Watson computer program. The bioavailability (BA) was calculated as follows: [formula]
The percentages of conversion of prodrug to active moiety was calculated using the following equation: [formula]
“AUC” represents area under the curve.

Compound: CC(C)Nc1ncc(-c2cc(N)cc(C(F)(F)F)c2)n(CC(=O)NCc2ccc(C(=N)NO)cc2)c1=O [Compound 1]
- S9 Hum. (percent remaining) [1]: 2%
- S9 Rat (percent remaining) [2]: 11%

Compound: CONC(=N)c1ccc(CNC(=O)Cn2c(-c3cc(N)cc(C(F)(F)F)c3)cnc(NC(C)C)c2=O)cc1 [Compound 4]
- S9 Hum. (percent remaining) [1]: 0%
- bioavailability [3]: 17%
- S9 Rat (percent remaining) [2]: 0%

Compound: CC(C)Nc1ncc(-c2cc(N)cc(C(F)(F)F)c2)n(CC(=O)NCc2ccc(C3=NC(C)(C)ON3)cc2)c1=O [Compound 5]
- S9 Hum. (percent remaining) [1]: 0.50%
- bioavailability [3]: 5%
- S9 Rat (percent remaining) [2]: 13%

Compound: CC(C)Nc1ncc(-c2cc(N)cc(C(F)(F)F)c2)n(CC(=O)NCc2ccc3c(N)noc3c2)c1=O [Compound 6]
- bioavailability [3]: 7%

Compound: CCOC(=O)O/N=C(\N)c1ccc(CNC(=O)Cn2c(-c3cc(N)cc(C(F)(F)F)c3)cnc(NC(C)C)c2=O)cc1 [Compound 7]
- S9 Hum. (percent remaining) [1]: 5%
- S9 Rat (percent remaining) [2]: 54%

Compound: CCONC(=N)c1ccc(CNC(=O)Cn2c(-c3cc(N)cc(C(F)(F)F)c3)cnc(NC(C)C)c2=O)cc1 [Compound 8]
- S9 Hum. (percent remaining) [1]: 1%
- bioavailability [3]: 20%
- S9 Rat (percent remaining) [2]: 3%

Compound: CC(C)Nc1ncc(-c2cc(N)cc(C(F)(F)F)c2)n(CC(=O)NCc2ccc3c(N)nc(=O)oc3c2)c1=O [Compound 9]
- S9 Hum. (percent remaining) [1]: 0%
- bioavailability [3]: 1%
- S9 Rat (percent remaining) [2]: 0%

Compound: CCCCOC(=O)O/N=C(\N)c1ccc(CNC(=O)Cn2c(-c3cc(N)cc(C(F)(F)F)c3)cnc(NC(C)C)c2=O)cc1 [Compound 11]
- S9 Hum. (percent remaining) [1]: 40%
- S9 Rat (percent remaining) [2]: 44%

Compound: COC(=O)c1cc(N)cc(-c2cnc(NC(C)C)c(=O)n2CC(=O)NCc2ccc(C(=N)NO)cc2)c1 [Compound 12]
- bioavailability [3]: 3%

Compound: CCNC(=O)O/N=C(\N)c1ccc(CNC(=O)Cn2c(-c3cc(N)cc(C(F)(F)F)c3)cnc(NC(C)C)c2=O)cc1 [Compound 14]
- S9 Hum. (percent remaining) [1]: 1%
- bioavailability [3]: 1%
- S9 Rat (percent remaining) [2]: 1%

Compound: CC(C)Nc1ncc(-c2cc(N)cc(C(F)(F)F)c2)n(CC(=O)NCCc2c(F)c(F)c3c(N)noc3c2F)c1=O [Compound 15]
- S9 Hum. (percent remaining) [1]: 39%
- bioavailability [3]: 4%
- S9 Rat (percent remaining) [2]: 25%

Compound: CC(C)COC(=O)O/N=C(\N)c1ccc(CNC(=O)Cn2c(-c3cc(N)cc(C(F)(F)F)c3)cnc(NC(C)C)c2=O)cc1 [Compound 16]
- S9 Hum. (percent remaining) [1]: 0%
- S9 Rat (percent remaining) [2]: 0%

Compound: CC(C)Nc1ncc(-c2cc(N)cc(NC(=O)C(C)C)c2)n(CC(=O)NCc2ccc(C(=N)NO)cc2)c1=O [Compound 18]
- S9 Hum. (percent remaining) [1]: 5%
- S9 Rat (percent remaining) [2]: 36%

Compound: CC(C)Nc1ncc(-c2cc(N)cc(C(F)(F)F)c2)n(CC(=O)NCc2ccc(/C(N)=N/OC(=O)OC(C)C)cc2)c1=O [Compound 20]
- bioavailability [3]: 2%

Compound: COc1ccc(OC(=O)O/N=C(\N)c2ccc(CNC(=O)Cn3c(-c4cc(N)cc(C(F)(F)F)c4)cnc(NC(C)C)c3=O)cc2)cc1 [Compound 24]
- S9 Hum. (percent remaining) [1]: 1%
- S9 Rat (percent remaining) [2]: 1%

Compound: CC(C)Nc1ncc(-c2cc(N)cc(C(F)(F)F)c2)n(CC(=O)NCc2ccc(C3=NOC(C)(c4ccccc4)N3)cc2)c1=O (stereo not shown) [Compound 25]
- S9 Hum. (percent remaining) [1]: 3%
- S9 Rat (percent remaining) [2]: 13%

Compound: CC(C)Nc1ncc(-c2cc(N)cc(C(F)(F)F)c2)n(CC(=O)NCc2ccc(C(=N)NOCc3ccccc3)cc2)c1=O [Compound 29]
- S9 Hum. (percent remaining) [1]: 17%
- S9 Rat (percent remaining) [2]: 14%
